What all share (assay type): in vivo
For test [1], the system named is Setaria faberi (SETFA). Kind of test: Example B post-emergence herbicidal activity, glasshouse pot test. The note with it: 312 h, evaluated after 13 days, read-out: Post-emergence activity SETFA (100=total damage to plant; 0=no damage to plant); for pest or weed control at 1000 g/ha: rate 1000 g/ha; for pest or weed control at 250 g/ha: rate 250 g/ha. In outline:
(§1)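 Potted plants grown from seed in a controlled glasshouse (24 °C day, 16 °C night; 14 h light; 65% humidity) were sprayed either pre-emergence, one day after sowing, or post-emergence after 8 days. Vehicle: acetone/water (50:50), 0.5% Tween 20. Scoring after 13 days, 0 = undamaged.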

The subject of test [2] is Alopecurus myosuroides (ALOMY). Described as above. The note with it: 312 h, evaluated after 13 days, read-out: Post-emergence activity ALOMY (100=total damage to plant; 0=no damage to plant); for pest or weed control at 1000 g/ha: rate 1000 g/ha; for pest or weed control at 250 g/ha: rate 250 g/ha. The method, boiled down:
as §1

Test [3] deals with Amaranthus retroflexus (AMARE). Described as above. The note with it: 312 h, evaluated after 13 days, read-out: Post-emergence activity AMARE (100=total damage to plant; 0=no damage to plant); for pest or weed control at 1000 g/ha: rate 1000 g/ha; for pest or weed control at 250 g/ha: rate 250 g/ha. The method, boiled down:
as §1

For test [4], the system named is Solanum nigrum (SOLNI). Described as above. Conditions: 312 h, evaluated after 13 days, read-out: Post-emergence activity SOLNI (100=total damage to plant; 0=no damage to plant); for pest or weed control at 1000 g/ha: rate 1000 g/ha; for pest or weed control at 250 g/ha: rate 250 g/ha. The method, boiled down:
as §1

In test [5] the test system is Echinochloa crus-galli (ECHCG). The description is as above. Conditions: 312 h, evaluated after 13 days, read-out: Post-emergence activity ECHCG (100=total damage to plant; 0=no damage to plant); for pest or weed control at 1000 g/ha: rate 1000 g/ha; for pest or weed control at 250 g/ha: rate 250 g/ha. The method, boiled down:
as §1

Test [6] concerns Avena fatua (AVEFA). Described as above. Conditions: 312 h, evaluated after 13 days, read-out: Post-emergence activity AVEFA (100=total damage to plant; 0=no damage to plant); for pest or weed control at 1000 g/ha: rate 1000 g/ha; for pest or weed control at 250 g/ha: rate 250 g/ha. The method, boiled down:
as §1

Test [7] has as its system Setaria faberi (SETFA). Nature of the test: Example B pre-emergence herbicidal activity, glasshouse pot test. The note with it: 312 h, evaluated after 13 days, read-out: Pre-emergence activity SETFA (100=total damage to plant; 0=no damage to plant); for pest or weed control at 1000 g/ha: rate 1000 g/ha; for pest or weed control at 250 g/ha: rate 250 g/ha. The method, boiled down: as §1

Test [8] deals with Alopecurus myosuroides (ALOMY). The test is described as above. Conditions: 312 h, evaluated after 13 days, read-out: Pre-emergence activity ALOMY (100=total damage to plant; 0=no damage to plant); for pest or weed control at 1000 g/ha: rate 1000 g/ha; for pest or weed control at 250 g/ha: rate 250 g/ha. The method, boiled down:
as §1

The test system of test [9] is Amaranthus retroflexus (AMARE). The test is described as above. Conditions: 312 h, evaluated after 13 days, read-out: Pre-emergence activity AMARE (100=total damage to plant; 0=no damage to plant); for pest or weed control at 1000 g/ha: rate 1000 g/ha; for pest or weed control at 250 g/ha: rate 250 g/ha. The method, boiled down: as §1
Test [10] deals with Solanum nigrum (SOLNI). The test is described as above. Conditions: 312 h, evaluated after 13 days, read-out: Pre-emergence activity SOLNI (100=total damage to plant; 0=no damage to plant); for pest or weed control at 1000 g/ha: rate 1000 g/ha; for pest or weed control at 250 g/ha: rate 250 g/ha. The method, boiled down:
as §1

For test [11], the system named is Echinochloa crus-galli (ECHCG). Described as above. The note with it: 312 h, evaluated after 13 days, read-out: Pre-emergence activity ECHCG (100=total damage to plant; 0=no damage to plant); for pest or weed control at 1000 g/ha: rate 1000 g/ha; for pest or weed control at 250 g/ha: rate 250 g/ha. In outline: as §1
The test system of test [12] is Avena fatua (AVEFA). The description is as above. The note with it: 312 h, evaluated after 13 days, read-out: Pre-emergence activity AVEFA (100=total damage to plant; 0=no damage to plant); for pest or weed control at 1000 g/ha: rate 1000 g/ha; for pest or weed control at 250 g/ha: rate 250 g/ha. In outline: as §1

Molecules are shown by their SMILES.

In the case of `CCc1ccc(-c2ccc(Cl)cc2)cc1C1=C(OC(=O)OC)C(C)(C)OC(C)(C)C1=O` [Compound D-16], the pest or weed control at 1000 g/ha was found to be 100% in the test with Setaria faberi (SETFA) [1]; 90% in test [2]; 0% in [3]; 0% in the test with Solanum nigrum (SOLNI) [4]; 100% in test [5]; 20% in the test with Avena fatua (AVEFA) [6]. Moreover, the pest or weed control at 1000 g/ha came to 100% with Setaria faberi (SETFA) [7]; 50% in test [8]; 0% in test [9]; 0% with Solanum nigrum (SOLNI) [10]; 90% in [11]; 0% in the test on Avena fatua (AVEFA) [12].
For `Cc1ccc(-c2ccc(F)cc2F)cc1C1=C(O)C(C)(C)OC(C)(C)C1=O` [Compound A-27], the pest or weed control at 1000 g/ha worked out at 100% in the test on Setaria faberi (SETFA) [1]; 80% in test [2]; 100% in test [3]; 50% with Solanum nigrum (SOLNI) [4]; 100% in test [5]; 80% with Avena fatua (AVEFA) [6]. Further, the pest or weed control at 1000 g/ha with Setaria faberi (SETFA) [7] was found to be 90%; in test [8], 80%; in test [9], 10%; with Solanum nigrum (SOLNI) [10], 20%; in test [11], 100%; in the test on Avena fatua (AVEFA) [12], 60%.
On to `Cc1ccc(-c2cc(F)c(F)c(F)c2)cc1C1=C(O)C(C)(C)OC(C)(C)C1=O` [Compound A-31], for which the pest or weed control at 1000 g/ha with Setaria faberi (SETFA) [1] came out at 100%; in test [2], 100%; in [3], 0%; with Solanum nigrum (SOLNI) [4], 60%; in [5], 100%; with Avena fatua (AVEFA) [6], 90%. The pest or weed control at 1000 g/ha with Setaria faberi (SETFA) [7] came out at 100%; in [8], 50%; in test [9] it was 0%; with Solanum nigrum (SOLNI) [10], 0%; in test [11], 100%; in the test with Avena fatua (AVEFA) [12], 0%.
On to `Cc1ccc(-c2cc(F)cc(F)c2)cc1C1=C(O)C(C)(C)OC(C)(C)C1=O` [Compound A-25], for which the pest or weed control at 1000 g/ha with Setaria faberi (SETFA) [1] was 70%; in test [2] it was 70%; in test [3], 100%; in the test with Solanum nigrum (SOLNI) [4], 70%; in [5], 90%; with Avena fatua (AVEFA) [6], 0%. Moreover, the pest or weed control at 1000 g/ha came to 20% in the test with Setaria faberi (SETFA) [7]; 70% in [8]; 0% in test [9]; 0% in the test with Solanum nigrum (SOLNI) [10]; 80% in test [11]; 30% in the test with Avena fatua (AVEFA) [12].
With `CCc1ccc(-c2ccc(Cl)cc2F)cc1C1=C(O)C(C)(C)C(=O)C(C)(C)C1=O` [Compound B-31], the pest or weed control at 250 g/ha was found to be 90% in the test on Setaria faberi (SETFA) [1]; 10% in test [2]; 0% in test [3]; 0% in the test with Solanum nigrum (SOLNI) [4]; 90% in test [5]; 0% in the test with Avena fatua (AVEFA) [6]. Also, the pest or weed control at 250 g/ha in the test on Setaria faberi (SETFA) [7] was determined as 50%; in [8], 0%; in test [9], 0%; in the test with Solanum nigrum (SOLNI) [10], 0%; in test [11], 50%; in the test with Avena fatua (AVEFA) [12], 20%.
For `Cc1ccc(-c2ccc(Cl)cc2F)cc1C1=C(O)C(C)(C)C(=O)C(C)(C)C1=O` [Compound B-18], the pest or weed control at 250 g/ha worked out at 70% with Setaria faberi (SETFA) [1]; 10% in [2]; 0% in test [3]; 0% with Solanum nigrum (SOLNI) [4]; 60% in test [5]; 0% in the test with Avena fatua (AVEFA) [6]. Further, the pest or weed control at 250 g/ha in the test with Setaria faberi (SETFA) [7] amounted to 20%; in [8] it was 40%; in [9], 0%; with Solanum nigrum (SOLNI) [10], 0%; in test [11], 0%; in the test on Avena fatua (AVEFA) [12], 0%.
Turning to `CCc1ccc(-c2cnc(Cl)cc2C)cc1C1=C(O)C(C)(C)C(=O)C(C)(C)C1=O` [Compound B-28], the pest or weed control at 250 g/ha in the test with Setaria faberi (SETFA) [1] came out at 70%; in [2], 0%; in test [3], 0%; in the test with Solanum nigrum (SOLNI) [4], 0%; in test [5], 70%; in the test on Avena fatua (AVEFA) [6], 0%. In addition, the pest or weed control at 250 g/ha (in the test on Setaria faberi (SETFA) [7]; in test [8]; in test [9]; in the test with Solanum nigrum (SOLNI) [10]; in test [11]; in the test on Avena fatua (AVEFA) [12]) was 0% each time.
For the compound `C#CCOC(=O)OC1=C(c2cc(-c3ccc(Cl)cc3)ccc2CC)C(=O)C(C)(C)OC1(C)C` [Compound D-15], the pest or weed control at 1000 g/ha came to 100% in the test on Setaria faberi (SETFA) [1]; 80% in test [2]; 0% in [3]; 0% in the test on Solanum nigrum (SOLNI) [4]; 100% in test [5]; 60% with Avena fatua (AVEFA) [6]. Moreover, the pest or weed control at 1000 g/ha worked out at 100% with Setaria faberi (SETFA) [7]; 80% in [8]; 0% in test [9]; 0% in the test with Solanum nigrum (SOLNI) [10]; 100% in [11]; 60% with Avena fatua (AVEFA) [12].
On to `CCc1ccc(-c2ccc(Cl)cc2)cc1C1=C(OC(=O)OC(C)C)C(C)(C)OC(C)(C)C1=O` [Compound D-17], for which the pest or weed control at 1000 g/ha stood at 100% with Setaria faberi (SETFA) [1]; 60% in test [2]; 10% in test [3]; 0% with Solanum nigrum (SOLNI) [4]; 100% in [5]; 20% in the test on Avena fatua (AVEFA) [6]. Moreover, the pest or weed control at 1000 g/ha in the test with Setaria faberi (SETFA) [7] amounted to 90%; in [8] it was 20%; in test [9] it was 0%; in the test on Solanum nigrum (SOLNI) [10], 0%; in test [11] it was 80%; with Avena fatua (AVEFA) [12], 0%.

Values taken from US8680012B2, “4-phenyl-pyrane-3,5-diones,4-phenyl-thiopyrane-3,6-diones and cyclohexanetriones as novel herbicides” (Syngenta Crop Protection LLC, priority 2006, dated 2014).
